Where no end group is shown, it is not given here. The star is where a group is joined. Octanoyl = CCCCCCCC(=O)*

For one assay, the system named is skin cell of rat fetus. In words: Intracellular calcium increasing activity in single cultured skin cell of rat fetus (Fura-2 calcium imaging). To be noted: for cell response in calcium imaging (FIG. 1 curves): single fetal rat skin cell, ghrelin and desacyl ghrelin added to different cells, concentration not given. It is filed as cell-based. On the procedure: A Wistar rat on the 17th day of pregnancy underwent laparotomy under anesthesia for fetus extraction. A small piece of skin was collected from the fetus, treated with collagenase in cold Hank's solution, digested with papain, and mechanically separated by pipetting. This gave a dispersion liquid of the fetal skin cells. A single cell was obtained from the dispersion liquid, ghrelin was added thereto, and calcium imaging was performed. For the calcium imaging, a calcium imaging device (IMACS, Hamamatsu Photonics) was used. That is, the ratio of the emission at a wavelength of 510 nm was measured when excitation was performed by 340 nm/380 nm light. Fura-2 was used as a calcium imaging agent. Desacyl ghrelin derived from a rat (SEQ ID NO: 3) was used.
In FIG. 1, I, II and III are the points at which a photograph was taken, but the photographs are omitted from the present description. […] Ghrelin and desacyl ghrelin were added to different cells, respectively.
It was shown that a receptor that responds to desacyl ghrelin existed in the skin cell of the rat fetus, and that addition of desacyl ghrelin increased intracellular calcium, inducing the activity of desacyl ghrelin.

In a further assay the test system is cultured fetal skin cell. In words: Proliferation activity in cultured fetal skin cell (BrdU uptake, Proliferation ELISA). To be noted: 24 hours incubation, BrdU 10 μM, versus control medium, FIG. 2. It is filed as cell-based, rat. On the procedure: The skin cells of a rat fetus were collected from a Wistar rat on the 17th day of pregnancy, and a dispersion liquid thereof was obtained in the same manner as in Example 1. The dispersed cells were suspended in a MCDB153HAA medium (F-Peptide Co., Ltd., Yamagata, Japan) containing 2% fetal bovine serum, penicillin (100 U/mL), streptomycin (100 μg/mL) and epidermal growth factor EGF (5 ng/mL), and sowed on a polyethyleneimine coated 96-hole multi-well plate in an amount of 3×10^4 cells/well. Desacyl ghrelin (0.05 to 500 μmol/mL (nM)) or desacyl ghrelin (1-15)-NH2 (SEQ ID NO: 22) (0.001 to 1 μmol/mL (nM)) and 5-bromo-2′-deoxyuridine (BrdU) (10 μM) were added thereto, which was then incubated for 24 hours. A medium containing neither desacyl ghrelin nor desacyl ghrelin (1-15)-NH2 was used as a control. After the culture was over, cells were collected, and then uptake quantity of BrdU into the fetal skin cell was measured using Proliferation ELISA Kit (Roche Diagnostic GmbH. Manheim, Germany) to consider the skin cell growth activity.
Uptake of BrdU increased when desacyl ghrelin or desacyl ghrelin (1-15)-NH2 acted on a cultured fetal skin cell.

Consider “desacyl ghrelin: Ghrelin peptide without the acyl (octanoyl) group at the third serine; rat sequence GSSFLSPEHQKAQQRKESKKPPAKLQPR (SEQ ID NO: 3) (PEPTIDE (1)..(28) Amino acid sequence for rat endogenous peptides of growth hormone secretagogue receptor; listed as Rattus norvegicus)”, for which the intracellular calcium result in the assay on skin cell of rat fetus (1×10^−6 M, skin cell of a single rat fetus, Fura-2 ratio 340 nm/380 nm, FIG. 1) is reported as “increase of intracellular calcium was observed”. In addition, the “cell response in calcium imaging (FIG. 1 curves)” value with skin cell of rat fetus is on record as “responded”. For the same substance, in the assay with cultured fetal skin cell (desacyl ghrelin 0.05 to 500 μmol/mL (nM)), the “uptake of BrdU into the fetal skin cell” value is reported as “increased”.
As to “desacyl ghrelin (1-15)-NH2: Peptide of the N terminus to the 15th amino acid residue of desacyl ghrelin, the 15th amino acid amidated (GSSFLSPEHQKAQQR-NH2; listed as Rattus norvegicus)”, in the assay on cultured fetal skin cell (desacyl ghrelin (1-15)-NH2 0.001 to 1 μmol/mL (nM)), the “uptake of BrdU into the fetal skin cell” value is “increased”.
As to “ghrelin: 28-residue peptide hormone, third amino acid from the N terminus acylated with fatty acid (n-octanoyl); acts on GHS-R1a (GSS(Octanoyl)FLSPEHQRVQQRKESKKPPAKLQPR; UniProt Q9UBU3 24-51, looked up) [reference compound]”, in the assay on skin cell of rat fetus, the “cell response in calcium imaging (FIG. 1 curves)” value is reported as “responded”.

The record behind these values is patent US20090305969A1, “Skin Repair Accelerating Therapeutic Agent Containing Desacyl Ghrelin and Derivatives Thereof as Active Ingredient” (priority 2005, published 2009).
